According to patent US5562894A, “Amino-acyl-type and catecholamine-type contrast agents for MRI” (Regents of the University of California, priority 1993, dated 1996):

Assays:
[1] = system: liver transport system or systems inhibitable by BSP; conditions: cited from earlier work
[2] = T1-weighted spin-echo, 0.5 Tesla; cited from earlier work
[3] = rat, in vivo, 6 h; cited from earlier work
[4] = in vivo; cited from earlier work
[5] = In vivo MRI, % enhancement by region of interest (Example 19); set-up: species or system Sprague-Dawley rats
Procedure: Magnetic resonance imaging was carried out using a CSI 2-Tesla imager (GE, Inc., Fremont, Calif.) equipped with a 5-cm diameter distributed-capacitance imaging coil. A T1-weighted (TR 300/TE 6; NEX 4) spin-echo sequence was used.
Sprague-Dawley rats (250-350 g; n=4 for each contrast agent) were anesthetized with ketamine (90 mg/kg) and diazepam (10 mg/kg) and fitted with an intravenous catheter in a lateral tail vein. Anesthesia was maintained during imaging using pentobarbital delivered via an intraperitoneal catheter.
The anesthetized animal was placed in the imaging coil and secured with tape. The coil containing the animal then was placed in the magnet bore, and the magnetic field was shimmed. Pre-contrast images were obtained. The contrast agent (100 μmol/kg) then was injected via the tail-vein catheter, and additional images were obtained at various intervals for up to 90 min post injection.
Contrast agent enhancement was determined by measuring the mean signal intensity (SI) in operator-designated regions of interest (ROI). These were normalized to the pre-injection value for each ROI according to the following formula:
% Enhancement=100×(SIpost -SIpre)/SIpre

[6] = assay type: in vitro ADME, rat
Procedure: (§1) Aliquots were withdrawn at various time intervals and examined by HPLC [PRP-1 column; water-acetonitrile gradient; 25 mM ammonium formate, pH 7 mobile phase].

[7] = Hydrolysis of the esters in pH 7.4 HEPES buffer; assay type: physicochemical; conditions: pH 7.4, 25° C., each step
Procedure: as §1

[8] = T1-weighted spin-echo MRI of a rat, region-of-interest % enhancement (Examples 8 and 9); assay type: in vivo, Sprague-Dawley rat
Procedure: FIG. 5 is a photograph of T1-weighted magnetic resonance images of a rat obtained before, and at 0, 5, 10, 15, 25, 45 and 60 minutes after the injection of Gd-DTPA-bis(phenylalanine) at a dose of 0.1 mmol/kg body weight. The images are 60 mm×60 mm×3 mm thick slices in the coronal plane. The region covered extends from just above the heart to somewhat below the liver. Imaging parameters are indicated along the left of the Figure and include the repetition time ([…]), echo time (6000 microseconds), number of signal averages (4), and the image matrix size (128×256).
FIGS. 6A and 6B are photographs of T1-weighted magnetic resonance images obtained as described in FIG. 5A and 5B, except that Gd-DTPA-bis(phenylalanine ethyl ester) was used as the contrast agent.
A 300-g male Sprague-Dawley rat was anesthetized with an intraperitoneal injection of a mixture of ketamine and diazepam, and a catheter was inserted into a lateral tail vein. The rat was then placed in a 5-cm inside diameter (i.d.) imaging coil in the bore of a 2-Tesla imager-spectrometer system (GE CSI; General Electric Co., Fremont, Calif.). A T1-weighted spin-echo image of the animal's abdomen in the coronal plane was then obtained (TR 300 ms; Te 6 ms; 128-256 image matrix; NEX=4; 3 mm slice thickness). Next, 0.6 g of the Gd-DTPA-bis(phenylalanine) solution described in Example 7 was injected via the catheter. A series of post-injection images were obtained. […] See also, FIGS. 5A and 5B.
The imaging was carried out analogously to Example 8. […] See also, FIGS. 6A and 6B.

[9] = Comparative MRI of two preparations of Gd-DTPA-bis(phenylalanine ethyl ester) (Example 11); assay type: in vivo, mice
Procedure: FIG. 8 is a photograph of T1-weighted magnetic resonance images obtained as in FIG. 6, except that a different preparation of Gd-DTPA-bis(phenylalanine ethyl ester) (sometimes abbreviated Gd-DTPA-(PheOEt)2) was used.
Freshly prepared material, whose pH was carefully adjusted to neutrality, and which was stored in the cold, was determined to be about 90% Gd-DTPA-(PheOEt)2, the remainder being mostly Gd-DTPA-(PheOEt) (Phe).

[10] = more pure preparation (about 90% bis ester)
[11] = partially hydrolyzed material of FIG. 6 (ca. 45% bis ester)

O=C([O-])C(NCCNC(C(=O)[O-])c1ccccc1[O-])c1ccccc1[O-].[Fe+3] (stereo not shown) [Fe-EHPG]
liver transport (in words) [1]: transported in the liver by a system or systems inhibitable by BSP

CC(=O)N([O-])CCCCCNC(=O)CCC(=O)N([O-])CCCCCNC(=O)CCC(=O)N([O-])CCCCCNC(=O)CC(CC(=O)[O-])c1ccccc1.[Fe+3].[H+] (stereo not shown) [Fe-PGDF]
liver transport (in words) [1]: transported in the liver by a system or systems inhibitable by BSP

O=C([O-])CN(CCN(CC(=O)[O-])CC(=O)[O-])CCN(CC(=O)[O-])C(COCc1ccccc1)C(=O)[O-].[Gd+3] (stereo not shown) [Gd-BOPTA]
signal enhancement in liver [2]: 48% | biliary excretion [3]: 38.6 % of injected dose

CNC[C@H](O)[C@@H](O)[C@H](O)[C@H](O)CO.CNC[C@H](O)[C@@H](O)[C@H](O)[C@H](O)CO.O=C([O-])CN(CCN(CC(=O)[O-])CC(=O)O)CCN(CC(=O)[O-])CC(=O)O.[Gd+3] [Gd-DTPA, gadolinium (III) complex of diethylenetriaminepentaacetic acid]
distribution (in words) [4]: distributes in blood plasma and extracellular fluid | signal enhancement in liver [2]: 16%

COc1ccc(CCNC(=O)CN(CCN(CCN(CC(=O)[O-])CC(=O)NCCc2ccc(OC)c(OC)c2)CC(=O)[O-])CC(=O)[O-])cc1OC.[Gd+3] [Gd-DTPA-(3,4-DMPE)2]
lung enhancement ([5]; 100 μmol/kg i.v., n=4): 141%±4% | enhancement of organs (in words) ([5]; MRI of rats): useful enhancement of heart, lungs, kidney and liver

CCOC(=O)[C@@H](Cc1ccccc1)NC(=O)CN(CCN(CCN(CC(=O)[O-])CC(=O)N[C@H](Cc1ccccc1)C(=O)OCC)CC(=O)[O-])CC(=O)[O-].[Gd+3] [Gd-DTPA-(D-PheOEt)2, Gd(III)-DTPA-bis(D-phenylalanine ethyl ester)]
ester hydrolysis in rat plasma (in words) [6]: resistant to even the first step of ester hydrolysis | t1/2 of ester hydrolysis in rat plasma [6]: None Detected | half-time of hydrolysis in aqueous buffer [7]: of the order of days

CCOC(=O)[C@H](Cc1ccccc1)NC(=O)CN(CCN(CCN(CC(=O)[O-])CC(=O)N[C@@H](Cc1ccccc1)C(=O)OCC)CC(=O)[O-])CC(=O)[O-].[Gd+3] [Gd-DTPA-bis(phenylalanine ethyl ester), Gd(III)-DTPA-bis(L-phenylalanine ethyl ester)]
image enhancement (in words) ([8]; 2 Tesla, about 0.1 mmol/kg): different apparent enhancement in the liver and heart | image region-of-interest % enhancement ([8]; heart, 0-3 min post-injection): 86% | image region-of-interest % enhancement ([8]; heart, 5-8 min post-injection): 46% | image region-of-interest % enhancement ([8]; heart, 15-18 min post-injection): 66% | image region-of-interest % enhancement ([8]; heart, 25-38 min post-injection): 48% | image region-of-interest % enhancement ([8]; heart, 45-48 min post-injection): 49% | image region-of-interest % enhancement ([8]; heart, 60-63 min post-injection): 25% | image region-of-interest % enhancement ([8]; liver, 0-3 min post-injection): 70% | image region-of-interest % enhancement ([8]; liver, 5-8 min post-injection): 109% | image region-of-interest % enhancement ([8]; liver, 15-18 min post-injection): 113% | image region-of-interest % enhancement ([8]; liver, 25-38 min post-injection): 99% | image region-of-interest % enhancement ([8]; liver, 45-48 min post-injection): 71% | image region-of-interest % enhancement ([8]; liver, 60-63 min post-injection): 44% | image region-of-interest % enhancement ([8]; muscle (Table 3: skeletal muscle), 0-3 min post-injection): 50% | image region-of-interest % enhancement ([8]; muscle (Table 3: skeletal muscle), 5-8 min post-injection): 30% | image region-of-interest % enhancement ([8]; muscle (Table 3: skeletal muscle), 15-18 min post-injection): 31% | image region-of-interest % enhancement ([8]; muscle (Table 3: skeletal muscle), 25-38 min post-injection): 26% | image region-of-interest % enhancement ([8]; muscle (Table 3: skeletal muscle), 45-48 min post-injection): 16% | image region-of-interest % enhancement ([8]; muscle (Table 3: skeletal muscle), 60-63 min post-injection): 16% | heart enhancement [9, 10]: 74% | liver enhancement [9, 10]: 163% | factor by which degree of liver enhancement was greater ([9]; more pure preparation vs FIG. 6 material): about three | heart enhancement [9, 11]: 84% | liver enhancement [9, 11]: 53% | ester hydrolysis in rat plasma (in words) [6]: very rapidly hydrolyzed in rat plasma | half-time of hydrolysis in aqueous buffer [7]: of the order of days
